Values joined by “and” are separate entries in the source; they are usually repeats but may differ in a detail not shown here. Identical values can stand only once. Counter-ions that a name gives are not always drawn. Blank lines part the entries; values can stand above or below the molecule they belong to.
Tests used:
[1] = GMP drug product stability of final formulation (25° C./60% RH and 2-8° C.), degradant CLXXVIII; type: physicochemical
Text: A batch of (XXXVI) formulated for clinical use was placed under formal GMP stability (Tables 20I.1 and […]).

[2] = molecular target: T1, BK potassium channel expressed in GH3 cells (Rattus norvegicus, UniProt Q62976); experiment: BK potassium channel current in GH3 cells, inside-out patches; type: cell-based; details: Almirite 1 (mM as printed)
T1 construct: endogenous in cells; host or cells: GH3 cells
Method: Stock solutions of the test article were prepared in dimethylsulfoxide (DMSO) and stored frozen. Test article concentrations were prepared fresh daily by diluting stock solutions into a physiological saline solution (composition in mM): KCl, 125; CaCl2, 8.5; HEPES, 10; EGTA, 11.25; pH adjusted to 7.2 with KOH (prepared weekly and refrigerated until used). All test solutions contained 0.1% DMSO.
GH3 cells were grown in culture using standard procedures. Ionic currents were measured from inside-out patches of GH3 cells. Channel activity was monitored in symmetrical K^+ conditions with a holding potential of −60 mV. Activities before and in the presence of each concentration of test articles were recorded for ≧3 minutes, respectively.
Data acquisition and analyses were performed using the suite of pCLAMP (Ver. 8.2) programs (MDS-AT, Sunnyvale, Calif. Percent inhibition by test article was calculated using the following equation: 100*(NPocontrol−NPotest)/NPocontrol Results

rat KCNK3/TASK-1 = molecular target: T2, rat KCNK3/TASK-1 (Rattus norvegicus, UniProt O54912); experiment: Thallium flux through rat TASK-1 (KCNK3-CHO cells); type: cell-based; details: Tl+ flux; 3 nM to 30 μM; read-out: rTASK-1 IC50
T2 construct: expressed in transfected cells; host or cells: CHO cells (tetracycline-inducible)
Method: (§1) CHO cells expressing recombinant tetracycline-inducible rat KCNK3/TASK-1 (KCNK3-CHO cells) were plated in poly-D-lysine coated 384-well plates at a density of 6,000 cells/well (50 μl/well of 120,000 cells/mL) and allowed to incubate for 72 hrs in the presence of 5% CO2 and 1 μg/mL tetracycline at 30° C. HEK cells expressing recombinant tetracycline-inducible human KCNK9/TASK-3 (KCNK9-HEK cells) were plated at a density of 15,000 cells per well (50 μl/well, 300,000 cells/mL) and incubated overnight at 37° C. and 5% CO2 in the presence of 1 μg/mL tetracycline.
(§2) Drug plates were generated from 10 mM 100% DMSO mother plates. Compounds were transferred to 384-well drug plates and titrated with sequential 1:3 dilutions in 100% DMSO for a total of 9 dilutions. A dilution plate is made by taking 2.4 μl from the mother plate and adding to […] of assay buffer for a 12% DMSO dilution plate. From this dilution plate, a final daughter plate is generated by taking 1 μA of the dilution plate and adding to 40 μA of assay buffer for a final DMSO concentration of 0.3%. Each compound was evaluated in duplicate and the concentration range evaluated was 3 nM to 30 μM.
(§3) When thallium was added to extracellular solution with a stimulus to open channels, Tl^+ flowed down its concentration gradient into the cells and channel activity was detected with an indicator dye, FluxOR™, that increased in cytosolic fluorescence. The FluxOR™ indicator dye was loaded into cells as a membrane permeable acetoxymethyl ester. On the day of each assay, FluxOR™ assay buffer was made fresh from Hank's Balanced Saline Solution (HBSS) buffered with 20 mM HEPES and pH adjusted to 7.4 with NaOH. Dye loading solution was prepared per manufacturer's instructions, and 25 μl of dye solution applied to each well with a multidropper after plating medium was removed manually from cells. Dye was allowed to load for 90 minutes at room temperature in the dark.
(§4) After the 90 min dye loading incubation and subsequent manual dye removal, 24 μl of the drug daughter plate was transfer to cell plates by a cybi-well system and then incubated at room temperature for 20 minutes to allow for equilibration within wells. Stimulation buffer was prepared from 5× chloride-free buffer, thallium, and potassium sulfate containing 5 times the desired final assay concentration of 10 mM K^+ 2.8 mM Tl^+. Cell plates were then transferred to an FDSS 6000 kinetic imaging plate reader (Hamamatsu). Fluorescence at 525 nm (excitation 488 nm) was measured for 10 seconds at 1 Hz to establish baseline for the entire plate. After baseline was established, 6 μl/well of stimulation buffer was added and fluorescence signal recorded for another 140 seconds.
(§5) From the fluorescence signals in the absence and presence of Galleon compounds, Inhibitory concentration curves were plotted and IC50 values were estimated using a curve fitting algorithm.

[3] = system: spontaneously breathing rats; experiment: Minute ventilation (MV) and cardiovascular parameters in naive rats; type: in vivo, rat; set-up: unit not given here
Method: (§6) All surgical procedures were performed under anesthesia induced by 2% isoflurane in compressed medical grade air. With rats in supine position, the right femoral vein was catheterized using polyethylene tubing (PE-50). This catheter was used for fluid and drug administration. Simultaneously, the right femoral artery was also catheterized for monitoring blood pressure and heart rate. In order to measure the respiratory parameters in spontaneously breathing rats, trachea was intubated using 13 gauge tracheal tube (2.5 mm ID, Instech Solomon, Pa.).
After establishing a stable base-line at 1.5% isoflurane, compounds (typically at a dose of 1 mpk) were administered IV, and ventilatory parameters were generated from spontaneously breathing rats, along with cardiovascular output (mean arterial pressure (MAP) and heart rate). Maximum peak minute ventilatory (MV) responses (MPR), along with changes in minute ventilation versus baseline (AMV) were obtained as shown in the tables below.

human KCNK9/TASK-3 = molecular target: T3, human KCNK9/TASK-3 (Homo sapiens, UniProt Q9NPC2); experiment: Thallium flux through human TASK-3 (KCNK9-HEK cells); type: cell-based; details: Tl+ flux; 3 nM to 30 μM; read-out: hTASK-3 IC50
T3 construct: expressed in transfected cells; host or cells: HEK cells (tetracycline-inducible)
Method: as §1, §2, §3, §4, §5

[4] = system: spontaneously breathing rats; experiment: Respiratory rate, tidal volume and minute volume in urethane-anesthetized rat; type: in vivo; details: IV; compared to vehicle
Method: Adult male Sprague Dawley rats (250-350 g body weight; Harlan, Indianapolis, Ind., USA) were anesthetized with isoflurane in oxygen. The femoral vein was cannulated to administer compounds. Body temperature was maintained between 36.0 and 37.2° C. throughout the experiment. The cervical portion of the trachea was cannulated and attached to a rat-sized pneumotachometer for measuring tracheal airflow. After surgical instrumentation was complete, isoflurane was slowly discontinued, while urethane (1.8 g/kg) was administered intravenously over 10-15 minutes to maintain anesthesia. Rats were permitted to breathe spontaneously and inspire 100% oxygen. At least 30-45 minutes after discontinuing isoflurane, baseline tracheal airflow was recorded for 20-30 minutes prior to compound administration. Vehicle and test compound were administered intravenously over 15-25 seconds and at a constant volume (1 mL/kg). At least 15-min elapsed between each dose of compound administered. Tracheal airflow was recorded continuously before, during and after compound administration. Tidal volume was derived from the integral of airflow, and respiratory rate was derived from the number of inspiratory cycles per minute. Minute volume was calculated as the product of tidal volume and respiratory rate (FIG. 32).

[5] = system: morphine-induced respiratory depression; experiment: Effects of morphine and compound on arterial blood gases in the rat; type: in vivo; details: opioid-treated rat
Method: Rats with pre-cannulated jugular vein and femoral arterial catheters (for administering drugs and obtaining blood samples respectively) were obtained from Harlan laboratories and kept at the animal facility at Galleon Pharmaceuticals until the experimental procedures. Each animal was dosed with morphine sulfate (10 mg/kg), dissolved in saline at a concentration of 10 mg/mL, via injection into the jugular vein over a period of 20 seconds with a 20 second flush of 0.9% NaCl saline. Prior to morphine administration, two 250 μL samples of arterial blood were aspirated from the femoral artery into a pre-heparinized syringe. The samples were analyzed on Radiometer's ABL Flex 800, where pO2, pCO2, pH, SaO2 and other parameters were recorded. Aspirated volumes of arterial blood were replaced by room temperature sterile saline (˜300 μL) slowly flushed back into the femoral arterial catheter of the rodent to prevent hypovolemia. Morphine was then administered and 2 minutes later another blood sample was taken.
The infusion started at t=15 minutes and ended at t=35 minutes. Arterial blood gas analysis occurred at time points t=12, 18, 25, 35, 40, 45, and 50 minutes.

[6] = system: morphine-induced respiratory depression; experiment: Opioid-induced respiratory depression in the rat, plethysmography (minute ventilation); type: in vivo; details: opioid-treated rat; plethysmography; FIG. 9
Method: Rats with pre-cannulated jugular vein (for administering drugs) were acclimated to plethysmography chambers for a minimum of 60 minutes, or until animals were no longer restless. Each animal was dosed with morphine sulfate (10 mg/kg), dissolved in sterile water at a concentration of 10 mg/mL (supplied by Baxter Healthcare Corporation), via injection into the jugular vein catheter over a period of 5-10 seconds.
Compound (XXXVI) was dissolved in 20% hydroxypropyl β-cyclodextran (20% bcd on graph) at a concentration of 0.45 mg/mL at pH 5. After a period of 5 min, compound (XXXVI), labeled as cmpd (A), was administered via infusion into the jugular vein at a dose of 0.10 mg/kg/min for 20 min and then at a dose of […] for 20 min (e.g., 20 μL/min/0.3 kg rat to yield […]).
After 20 minutes of infusion at this dose, the infusion pumps were turned off, and all animals were given a 20 minute recovery period, followed by a post-study analysis of rat health and behavior. […] Results are illustrated in FIG. 1.

[7] = system: spontaneously breathing rats; experiment: Dose-dependent effect on minute ventilation (MV) in naive rats; type: in vivo, rat; details: 1.5% isoflurane; for minute ventilation, dose dependence: cumulative IV doses
Method: as §6, with “pressure.” for “pressure and heart rate.”
After establishing a stable base-line at 1.5% isoflurane, cumulative dose-dependent (0.01, 0.03, 0.1, 0.3, 1, 3, 10 mg/kg) ventilatory responses to compounds (XXXVI) and (L), labeled as cmpd (A) and cmpd (B) respectively, were generated from spontaneously breathing rats. Maximum peak minute ventilatory (MV) values at each dose of corresponding drug were calculated and used for generating ED50 values.

[8] = Table 8, 1 mpk, 20% HPβCD, pH 4

T2 sequence (O54912 whole entry): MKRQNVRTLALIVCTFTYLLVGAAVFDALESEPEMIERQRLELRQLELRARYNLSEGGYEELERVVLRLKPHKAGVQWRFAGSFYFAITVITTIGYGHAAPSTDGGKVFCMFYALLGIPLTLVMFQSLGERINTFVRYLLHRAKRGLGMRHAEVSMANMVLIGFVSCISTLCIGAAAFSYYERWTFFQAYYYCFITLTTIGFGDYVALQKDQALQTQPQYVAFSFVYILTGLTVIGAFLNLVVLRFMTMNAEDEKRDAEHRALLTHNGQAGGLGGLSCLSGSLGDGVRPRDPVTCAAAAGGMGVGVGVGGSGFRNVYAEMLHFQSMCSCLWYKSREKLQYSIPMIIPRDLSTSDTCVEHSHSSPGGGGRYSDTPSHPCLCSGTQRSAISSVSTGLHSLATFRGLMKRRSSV
T3 sequence (Q9NPC2 whole entry): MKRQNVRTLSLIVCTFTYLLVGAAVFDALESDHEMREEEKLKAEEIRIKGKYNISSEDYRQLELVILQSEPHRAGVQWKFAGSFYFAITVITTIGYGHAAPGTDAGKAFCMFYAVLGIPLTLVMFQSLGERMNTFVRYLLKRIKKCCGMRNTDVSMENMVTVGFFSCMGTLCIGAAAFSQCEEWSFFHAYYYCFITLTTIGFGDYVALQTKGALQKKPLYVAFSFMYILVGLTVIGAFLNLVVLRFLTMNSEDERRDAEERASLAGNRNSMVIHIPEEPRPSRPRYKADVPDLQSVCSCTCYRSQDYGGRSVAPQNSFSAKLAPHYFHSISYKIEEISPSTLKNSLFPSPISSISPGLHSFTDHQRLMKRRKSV
T1 sequence (Q62976 whole entry): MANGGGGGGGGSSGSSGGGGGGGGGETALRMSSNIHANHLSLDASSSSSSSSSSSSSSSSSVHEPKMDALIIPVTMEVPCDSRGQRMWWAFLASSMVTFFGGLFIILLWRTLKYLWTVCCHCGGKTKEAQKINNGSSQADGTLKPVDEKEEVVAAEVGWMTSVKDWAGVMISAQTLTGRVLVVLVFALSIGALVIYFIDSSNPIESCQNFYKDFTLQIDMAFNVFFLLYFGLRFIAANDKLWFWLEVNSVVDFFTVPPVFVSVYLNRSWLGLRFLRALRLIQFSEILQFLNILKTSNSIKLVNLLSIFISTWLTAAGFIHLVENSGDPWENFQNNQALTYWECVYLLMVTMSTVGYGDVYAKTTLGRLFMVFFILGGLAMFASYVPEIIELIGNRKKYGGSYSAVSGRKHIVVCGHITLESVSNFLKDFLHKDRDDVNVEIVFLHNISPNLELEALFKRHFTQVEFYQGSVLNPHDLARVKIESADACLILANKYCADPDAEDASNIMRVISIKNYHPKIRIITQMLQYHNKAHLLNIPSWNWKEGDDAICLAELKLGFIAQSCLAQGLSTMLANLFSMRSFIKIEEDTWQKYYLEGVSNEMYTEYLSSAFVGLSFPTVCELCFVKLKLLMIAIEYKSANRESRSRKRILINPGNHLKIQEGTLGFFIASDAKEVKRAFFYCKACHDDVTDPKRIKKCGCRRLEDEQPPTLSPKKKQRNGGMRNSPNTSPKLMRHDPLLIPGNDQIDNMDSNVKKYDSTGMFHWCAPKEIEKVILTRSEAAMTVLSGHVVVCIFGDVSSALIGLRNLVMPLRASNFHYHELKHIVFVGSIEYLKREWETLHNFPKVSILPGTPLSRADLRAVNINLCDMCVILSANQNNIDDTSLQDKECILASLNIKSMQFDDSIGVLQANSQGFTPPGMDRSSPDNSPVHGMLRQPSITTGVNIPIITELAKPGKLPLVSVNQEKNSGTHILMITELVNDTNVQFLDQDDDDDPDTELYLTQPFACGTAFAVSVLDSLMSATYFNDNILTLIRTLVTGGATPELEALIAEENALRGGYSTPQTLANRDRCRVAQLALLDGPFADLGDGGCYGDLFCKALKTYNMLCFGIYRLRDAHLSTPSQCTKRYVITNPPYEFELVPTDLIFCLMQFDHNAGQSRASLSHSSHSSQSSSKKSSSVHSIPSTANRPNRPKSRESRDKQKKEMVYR

Compound: CCCNc1nc(O)nc(NCCC)n1 [(CLXXVIII)]
Level of Degradant (CLXXVIII) in GMP lot# 041I0511 ([1]; 5° C., amb. RH, Inverted, T = 1 month): 0.03%
Level of Degradant (CLXXVIII) in GMP lot# 041I0511 ([1]; 5° C., amb. RH, Inverted, T = 3 month): 0.06%
Level of Degradant (CLXXVIII) in GMP lot# 041I0511 ([1]; 5° C., amb. RH, Inverted, T = 6 month): 0.08%
Level of Degradant (CLXXVIII) in GMP lot# 041I0511 ([1]; 5° C., amb. RH, Inverted, T = 9 month): 0.11%
Level of Degradant (CLXXVIII) in GMP lot# 041I0511 ([1]; 5° C., amb. RH, Upright, T = 6 month): 0.08%
Level of Degradant (CLXXVIII) in GMP lot# 041I0511 ([1]; Release Testing, Drug Product Production lot Sample Pull Beg.): 0.00%
Level of Degradant (CLXXVIII) in GMP lot# 041I0511 ([1]; Release Testing, Drug Product Production lot Sample Pull End): 0.00%
Level of Degradant (CLXXVIII) in GMP lot# 041I0511 ([1]; Release Testing, Drug Product Production lot Sample Pull Mid.): 0.00%

Compound: C=CCNc1nc(NCC=C)nc(N2CCN(C(c3ccc(F)cc3)c3ccc(F)cc3)CC2)n1 [Almirite, almitrine, reference compound]
Inhibition (%), Average [2]: 94.7%
NPo, Average [2]: 0.0010
Inhibition (%) ([2]; single patch): 97.9% and 91.5%
NPo (total channel open probability) ([2]; single patch): 0.0009 and 0.0011

Compound: CCCNc1nc(NN(C)C)c2ccn(C)c2n1 [CLXX, N,N-Dimethyl-N′-(2-n-propylamino-7-methyl-pyrrolo[2,3d]pyrimidin-4-yl)-hydrazine]
IC50 (rat KCNK3/TASK-1): 160 nM
MV DMV ([3]; Table 8, 1 mpk, 15/65/20, pH 5): 89
MV MPR ([3]; Table 8, 1 mpk, 15/65/20, pH 5): 167
MV DMV [3, 8]: 83
MV MPR [3, 8]: 175
IC50 (human KCNK9/TASK-3): > 30000 nM

Compound: CCCNc1nc(NC)nc(NCCC)n1 [CLXXII, N-(2,4-Bis-n-propylamino)-N-(6-methylamino)-[1,3,5]triazine]
IC50 (rat KCNK3/TASK-1): 10 nM
MV MPR ([3]; 1 mpk IV, 15/65/20, pH 5): 145
MV ΔMV ([3]; 1 mpk IV, 15/65/20, pH 5): 106
respiratory rate, tidal volume and minute volume [4]: increased both respiratory rate and tidal volume, and their product minute volume
IC50 (human KCNK9/TASK-3): > 30000 nM

Compound: CCCNc1nc(N(C)OC)c2cc[nH]c2n1 [CXLII, N-(2-Propylamino-7H-pyrrolo[2,3d]pyrimidin-4-yl)-N,O-dimethyl-hydroxylamine hydrochloride]
effects of opioid on blood gases and pH (pH, SaO2, pO2, pCO2) [5]: reverse the effects of opioid on blood gases and pH
minute ventilation (MV), reversal of opioid-induced respiratory depression [6]: reverse opioid-induced respiratory depression

Compound: CCCNc1nc(NCCC)nc(N(C)NC)n1.O=S(=O)(O)O [L, N-(4,6-Bis-n-propylamino-[1,3,5]triazin-2-yl)-N,N′-dimethyl-hydrazine hydrogen sulfate]
effects of opioid on blood gases and pH (pH, SaO2, pO2, pCO2) [5]: reverse the effects of opioid on blood gases and pH
ED50 ([7]; Rattus norvegicus, cumulative IV doses 0.01-10 mg/kg, read-out: ED50, maximum peak minute ventilation): 0.13 mg/kg
minute ventilation, dose dependence [7]: increased minute ventilation in a dose-dependent manner

The next lines start with results.

IC50 (rat KCNK3/TASK-1): 220 nM
IC50 (human KCNK9/TASK-3): > 30000 nM
Compound: CCCNc1cc(N(C)OC)nc(NCCC)n1 [CXXI, 2,6-Bis-(N-n-propylamino)-[1,3]pyrimidin-4-yl)-N,O-dimethyl-hydroxylamine hydrogen sulfate]
minute ventilation, dose dependence [7]: increase minute ventilation in a dose-dependent manner

IC50 (rat KCNK3/TASK-1): 50 nM
IC50 (human KCNK9/TASK-3): > 30000 nM
Compound: CCCNc1nc(NCCC)nc(NOC)n1.Cl [XLII, N-(4,6-Bis-n-propylamino-[1,3,5]triazin-2-yl)-O-methyl-hydroxylamine hydrochloride]
respiratory rate, tidal volume and minute volume [4]: increased both respiratory rate and tidal volume, and their product minute volume

IC50 (rat KCNK3/TASK-1): 600 nM
IC50 (human KCNK9/TASK-3): > 30000 nM
Compound: CCCNc1nc(NCCC)nc(NN(C)C)n1 [XLVI, N-(4,6-Bis-n-propylamino-[1,3,5]triazin-2-yl)-N′,N′-dimethylhydrazine]
